# “Also recorded” adds a separate entry of the source.
# Legend:
# [1] = NASH patients; cited from earlier work
# human hepatocytes = assay: LDL uptake by in vitro human hepatocytes treated with FXR agonists; assay type: cell-based
# Excerpt: To mitigate the increase in peripheric LDL, we hypothesize that treating the subjects in the evening (from about 6 pm to about […], e.g. from about 8 pm to about 11 pm, preferably around 9 pm) would be reduce the impact of the drug on LDL. […] In addition, during night time, the hepatocytes rely less on cholesterol coming from the food intake (LDL and others) since the body is then fasting but more on the intrahepatic production of cholesterol via HMGCOa reductase; the activity of this enzyme is the highest during the night. Indeed, in human, whilst the Cyp7A1 activity peak at 1 and 9 pm, intracellular cholesterol levels in hepatocytes are the highest during the night (between midnight and 4 AM).
# [2] = Phase 2 dose range finding study of licogliflozin in obese patients (CLIK066B2201); assay type: in vivo, human; settings: obese patients (placebo 19.2%)
# Protocol: A dose of 30 mg QD is expected to achieve approximately 70% of maximum observed efficacy (using weight loss as a downstream marker for efficacy; CLIK066B2201). Licogliflozin is currently being tested as 30 mg and 150 mg QD monotherapy in NASH (CLIK066X2204). […] To minimize the risk of GI adverse effects of the SGLT1 inhibition in the gut such as diarrhea, licogliflozin will be administered in the evening.
# [3] = Drug-drug interaction study of tropifexor and licogliflozin in healthy but overweight to obese subjects; assay type: in vivo, human
# Protocol: Sixteen subjects with a BMI of 25 to 35 kg/m2 were enrolled. […] Standard safety assessments were performed, with adverse event monitoring. Steady state PK parameters from Period 1 or 2 (single agent PK) were compared with that from Period 3 (combination PK) to assess the effect of potential drug interaction.
# [4] = Dose finding study of licogliflozin in Japanese patients with obesity disease; assay type: in vivo, human; settings: for placebo-subtracted percentage change in body weight from baseline at Week 12: Japanese patients with obesity disease
# Protocol: This study was a randomized, double-blind, placebo controlled, dose finding study to evaluate the effect of licogliflozin (2.5, 10, 25 and 50 mg qd) in 126 Japanese patients with obesity disease. The primary objective was to examine the dose-response relationship of licogliflozin treatment in body weight reduction relative to placebo at 12 weeks. The secondary objectives included assessment of responder rates, change in parameters related to complications, visceral and subcutaneous fat area, and safety through 12 weeks of treatment.
# [5] = Placebo-controlled, randomized Phase 2a study of licogliflozin in NASH patients, interim analysis (NCT03205150, CLIK066X2204); assay type: in vivo, human; settings: for patients achieving at least 5% absolute reduction in liver fat: 12 weeks (placebo 18.8%); for proportion of patients with at least a 30% relative reduction in liver fat content: 12 weeks (placebo 25%); for patients reporting diarrhea (adverse event): 12 weeks (placebo 38.9%)
# Protocol: METHOD: Patients with histologically confirmed NASH (F1-F3) or phenotypic NASH (BMI≥27 kg/m^2 in non-Asians or 23 kg/m^2 in Asians, ALT≥50 (males) or 35 (females) and type 2 diabetes (T2DM)) received daily oral licogliflozin at 150 mg, 30 mg or placebo in a 2:2:1 ratio for 12 weeks (NCT03205150). The primary endpoint is the effect on ALT level after 12 weeks of treatment. Secondary endpoints include improvement in body weight, liver fat content and AST, amongst others. The study size is 110 of which 77 have completed (placebo (n=18); licogliflozin 30 mg (n=25) and licogliflozin 150 mg (n=34)) and are included in the interim analysis.
# [6] = Licogliflozin 2 week study in healthy subjects and patients with T2DM; assay type: in vivo, human
# Protocol: (§1) i.e., (2S,3R,4R,5S,6R)-2-(3-((2,3-dihydrobenzo[b][1,4]dioxin-6-yl)methyl)-4-ethylphenyl)-6-(hydroxymethyl)tetrahydro-2H-pyran-3,4,5-triol. […] Licogliflozin at 150 mg daily dose results in a significant weight loss in obese patients (˜6%) after 12 week treatment.
# [7] = Licogliflozin 150 mg daily, 12 week treatment in obese patients / normoglycemic and dysglycemic subjects; assay type: in vivo, human
# Protocol: as §1
# [8] = FLIGHT-FXR (NCT02855164) Part C interim analysis, tropifexor in fibrotic NASH; assay type: in vivo, human; settings: for ALT, LS mean absolute change (SE) from baseline to Week 12: placebo −8.9 (4.19); for GGT, LS mean absolute change (SE) from baseline to Week 12: placebo −2.5 (3.55); for Body weight, LS mean absolute change (SE) from baseline to Week 12: placebo −1.14 (0.36)
# [9] = Tropifexor in NASH patients, Parts A and B of study CLJN452A2202
# [10] = licogliflozin 50 mg in the presence of tropifexor 140 μg vs alone
# [11] = 200 μg once daily, n = 46, P < 0.001
# [12] = tropifexor 140 μg in the presence of licogliflozin 50 mg vs alone
# [13] = 10 to 90 μg daily for 12 weeks, NASH patients
# [14] = all doses (10, 30, 60 and 90 μg), 12 weeks
smiles,measurement,setting,value
"CC[C@H]1[C@@H](O)[C@@H]2[C@H](CC[C@]3(C)[C@@H]([C@H](C)CCC(=O)O)CC[C@@H]23)[C@@]2(C)CC[C@@H](O)C[C@@H]12 [obeticholic acid, 6α-ethyl-chenodeoxycholic acid]",safety on long term administration,[1],"associated with pruritus, as well as with lipid abnormalities"
same,LDL uptake by hepatocytes,human hepatocytes; FIG. 5,reduce the LDL uptake by hepatocytes in a dose dependent manner
same,LDL uptake by hepatocytes,"human hepatocytes; FIG. 5, listed as OCA",decreased LDL uptake
"CCc1ccc([C@@H]2O[C@H](CO)[C@@H](O)[C@H](O)[C@H]2O)cc1Cc1ccc2c(c1)OCCO2 [licogliflozin, (2S,3R,4R,5S,6R)-2-(3-((2,3-dihydrobenzo[b][1,4]dioxin-6-yl)methyl)-4-ethylphenyl)-6-(hydroxymethyl)tetrahydro-2H-pyran-3,4,5-triol]",incidence of diarrhea,[2]; 2.5 mg QD for 24 weeks,18.4%
same,incidence of diarrhea,[2]; 10 mg QD for 24 weeks,15.8%
same,incidence of diarrhea,[2]; 50 mg QD for 24 weeks,55.3%
same,incidence of diarrhea,[2]; 150 mg QD for 24 weeks,68.8%
same,increase of mean peak plasma concentration,[3]; [10],8%
same,increase of total exposure,[3]; [10],12%
same,placebo-subtracted percentage change in body weight from baseline at Week 12,[4]; 2.5 mg qd,−1.99%
same,placebo-subtracted percentage change in body weight from baseline at Week 12,[4]; 10 mg qd,−3.00%
same,placebo-subtracted percentage change in body weight from baseline at Week 12,[4]; 25 mg qd,−3.54%
same,placebo-subtracted percentage change in body weight from baseline at Week 12,[4]; 50 mg qd,−3.91%
same,safety,"[4]; 2.5, 10, 25 and 50 mg qd over 12 weeks",safe with no ketoacidosis and no new safety signals
same,"body weight, dose dependence","[4]; 2.5, 10, 25 and 50 mg qd, 12 weeks",dose-dependent reduction in body weight
same,patients achieving reduction of ≥3% in body weight,"[4]; 10, 25 and 50 mg qd dose groups (placebo 7.1%; p≤0.002 for all)",≥ 50%
same,placebo adjusted reduction from baseline levels of ALT,"[5]; 30 mg daily oral, 12 weeks, p=NS",19%
same,patients achieving at least 5% absolute reduction in liver fat,[5]; 30 mg,43.5%
same,proportion of patients with at least a 30% relative reduction in liver fat content,[5]; 30 mg,39.5%
same,patients reporting diarrhea (adverse event),[5]; 30 mg,40%
same,placebo adjusted reduction in HbA1c (absolute change),"[5]; 30 mg, 12 weeks, p=0.001",0.81%
same,reduction in GGT,"[5]; 30 mg, 12 weeks, p=0.014",26%
same,reduction in AST,"[5]; 30 mg, 12 weeks, p=0.043",23%
same,absolute reduction in liver fat,"[5]; 30 mg, 12 weeks, p=NS",2.71%
same,relative reduction in liver fat content,"[5]; 30 mg, 12 weeks, p=NS",10%
same,"ALT and liver fat, interim analysis",[5]; 150 mg QD monotherapy in NASH,promising reduction of ALT and liver fat
same,"gastrointestinal events (mainly diarrhea), interim analysis",[5]; 150 mg QD monotherapy in NASH,significant incidence of gastrointestinal events
same,placebo adjusted reduction from baseline levels of ALT,"[5]; 150 mg daily oral, 12 weeks, p=0.036",27%
same,patients achieving at least 5% absolute reduction in liver fat,[5]; 150 mg,63.3%
same,proportion of patients with at least a 30% relative reduction in liver fat content,[5]; 150 mg,66.7%
same,patients reporting diarrhea (adverse event),[5]; 150 mg,76.5%
same,placebo adjusted reduction in HbA1c (absolute change),"[5]; 150 mg, 12 weeks, p=0.0001",0.96%
same,reduction in GGT,"[5]; 150 mg, 12 weeks, p=0.001",32%
same,reduction in AST,"[5]; 150 mg, 12 weeks, p=0.004",30%
same,absolute reduction in liver fat,"[5]; 150 mg, 12 weeks, p=0.01",4.45%
same,relative reduction in liver fat content,"[5]; 150 mg, 12 weeks, p=0.01",22%
same,safety and tolerability,"[5]; 12 weeks of treatment, NASH patients",safe and tolerable
same,diarrhea events that were mild,[5]; all diarrhea events of the study,97.4%
same,placebo adjusted reduction in body weight,"[5]; both doses (150 mg and 30 mg), 12 weeks, p=0.0001",~4%
same,pharmacokinetic profile,[6],favorable pharmacokinetic profile
same,safety and tolerability,[6],safe and tolerated
same,placebo-adjusted weight loss,[6]; over 2 weeks,up to 3%
same,weight loss,"[7]; 150 mg daily dose, obese patients, after 12 week treatment",~6%
same,safety and tolerability,"[7]; 150 mg once daily, twelve weeks, normoglycemic and dysglycemic subjects",generally safe and well tolerated with diarrhea observed as a dose-limiting toxicity
"O=C(O)c1cc(F)c2nc(N3C4CC[C@H]3CC(OCc3c(-c5ccccc5OC(F)(F)F)noc3C3CC3)C4)sc2c1 (stereo partly drawn) [tropifexor, 2-[(1R,3r,5S)-3-({5-cyclopropyl-3-[2-(trifluoromethoxy)phenyl]-1,2-oxazol-4-yl}methoxy)-8-azabicyclo[3.2.1]octan-8-yl]-4-fluoro-1,3-benzothiazole-6-carboxylic acid]",low density lipoprotein-cholesterol (LDL-C),[8]; 140 μg and 200 μg,dose-related increase
same,frequency of serious adverse events,[8]; 140 μg and 200 μg vs placebo,low and comparable across groups
same,"ALT, LS mean absolute change (SE) from baseline to Week 12","[8]; 140 μg once daily, n = 41, P = 0.058",−20.1 (4.57) U/L
same,"GGT, LS mean absolute change (SE) from baseline to Week 12","[8]; 140 μg once daily, n = 44, P < 0.001",−39.2 (3.70) U/L
same,"Body weight, LS mean absolute change (SE) from baseline to Week 12","[8]; 140 μg once daily, n = 46, P = 0.010",−2.46 (0.38) kg
same,treatment discontinuation rate due to pruritus,"[8]; 140 μg, n=1 (placebo 0%)",2%
same,pre-specified endpoints at week 12,[8]; 200 μg once daily,met
same,"ALT, LS mean absolute change (SE) from baseline to Week 12","[8]; 200 μg once daily, n = 39, P = 0.013",−23.6 (4.48) U/L
same,"Body weight, LS mean absolute change (SE) from baseline to Week 12",[8]; [11],−3.20 (0.37) kg
same,"GGT, LS mean absolute change (SE) from baseline to Week 12",[8]; [11],−40.9 (3.62) U/L
same,treatment discontinuation rate due to pruritus,"[8]; 200 μg, n=3 (placebo 0%)",6%
same,patients with pruritus whose events had mild (Grade 1) severity,"[8]; both Tropifexor groups (140 μg, 200 μg)",> 60%
same,"ALT, HFF, and body weight after 12 weeks","[8]; higher doses (140 μg, 200 μg)",robust and dose-dependent decreases
same,safety and tolerability after 12 weeks,"[8]; higher doses (140 μg, 200 μg)",good safety and tolerability
same,"decrease of mean peak plasma concentration (Cmax,ss)",[3]; [12],15%
same,"decrease of total exposure (AUCtau,ss)",[3]; [12],12%
same,biologic activity (GGT),[9]; [13],clear dose response
same,target engagement (FGF19),[9]; [13],clear dose response
same,ALT compared to placebo,[9]; [14],reduced across all tropifexor doses
same,hepatic fat fraction compared to placebo,[9]; [14],reduced across all tropifexor doses
same,tolerability,[9]; up to 90 μg daily,generally well tolerated up to 90 μg daily without safety signals
O=C(O)c1ccnc(N2CC(O)(c3ccc(OCc4c(-c5c(Cl)cccc5Cl)noc4C4CC4)cc3Cl)C2)c1 [cilofexor],LDL uptake by hepatocytes,human hepatocytes; FIG. 5,reduce the LDL uptake by hepatocytes in a dose dependent manner; also recorded: decreased LDL uptake
